The conditions of data set [1]: topical drop, drug available to the eye; cited from earlier work.
For data set [2], the system named is eye. The experiment in a line: sustained release doses of Bimatoprost, reduction in intraocular pressure. The data set is classed as in vivo. The conditions noted are these: sustained release 20 to 200 ng daily, 0.2 to 2% of the daily drop dosage. As for the experimental part: Commercially available solution concentrations of Bimatoprost are 0.03% by weight, often delivered once per day. Although the sustained release amount of Bimatnoprost released each day can vary, a sustained release of […] per day corresponds to about 2% of the 15 μg of Bimatoprost applied with a single drop of a 0.03% solution.

The conditions of data set [3]: in water at 25° C.; cited from earlier work.
Data set [4] concerns eye. The settings on record: cited from earlier work.

Usually aqueous solubility stands for the dissolved amount per volume that the medium holds.

In brackets after ≈: the same amount, converted by molar mass.

For the compound `CC(C)(C)NC[C@H](O)COc1nsnc1N1CCOCC1` [Timolol], in data set [1], the bioavailability is recorded as 30-50%.
Take `CCNC(=O)CCC/C=C\C[C@@H]1[C@@H](/C=C/[C@@H](O)CCc2ccccc2)[C@H](O)C[C@@H]1O` [Bimatoprost]: the “reduction in intraocular pressure” value in data set [2] is “at least some reduction in intraocular pressure”. Besides, the aqueous solubility in data set [3] is 300 µg/mL (≈ 722 µM).
Turning to `CC(C)OC(=O)CCC/C=C\C[C@@H]1[C@@H](CC[C@@H](O)CCc2ccccc2)[C@H](O)C[C@@H]1O` [Latanoprost], the “duration of effective IOP lowering” value in data set [4] (about 200 ng of drug remaining on the eye after a Xalatan drop (2.5 μg)) is on record as “at least 24 hours”. Further, the “IOP reduction relative to that of the 50 μg/mL QD dose” value in data set [4] (lowest doses of 12.5 μg/mL QD or 15 μg/mL BID, eye drops) is listed as 60-75%.

The values are drawn from US10300014B2, “Nasolacrimal drainage system implants for drug therapy” (Mati Therapeutics Inc., priority 2006, dated 2019).
